According to patent US12091425B2 (AMGEN INC., priority 2016, dated 2024):

biological target: T1, Mcl-1/Bim interaction, recombinant human Mcl-1 (171-327) (Homo sapiens, UniProt Q07820); assay: Cell free Mcl-1: Bim Affinity Assay (Mcl-1 HTRF); format: binding; conditions: TR-FRET, 0.1 nM Mcl-1 (171-327), 0.05 nM biotin-Bim (51-76)
T1 construct: made in house
Summary of the method: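 Read-out is time-resolved FRET after overnight incubation, using a biotin-labelled peptide from human Bim (51-76) as the binding partner; IC50 was derived from competition curves.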

T1 sequence (Q07820 171-327): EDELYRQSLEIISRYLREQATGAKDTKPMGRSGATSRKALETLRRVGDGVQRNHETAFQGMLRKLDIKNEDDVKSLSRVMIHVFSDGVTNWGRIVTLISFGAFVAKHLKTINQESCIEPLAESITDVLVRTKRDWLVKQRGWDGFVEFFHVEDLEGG

Compound	IC50
O=C1NS(=O)(=O)CCCCCS(=O)(=O)C2CCC2CN2C[C@@]3(CCCc4cc(Cl)ccc43)COc3ccc1cc32 (mixture of isomers) [Example 196]	22.2 nM
COCCOCC1CCC=CC(O)C2CCC2CN2CC3(CCCc4cc(Cl)ccc43)COc3ccc(cc32)C(=O)NS1(=O)=O (single isomer, unassigned) [Example 447]	0.378 nM
C[C@]12CC[C@H]1CN1C[C@@]3(CCCc4cc(Cl)ccc43)COc3ccc(cc31)C(=O)NS(=O)(=O)CCCCC[C@@H]2O (single isomer, unassigned) [Example 123]	4.3 nM
COc1ccc(CN2CCCCS(=O)(=O)NC(=O)c3ccc4c(c3)N(C[C@@H]3CC[C@H]3C2=O)C[C@@]2(CCCc3cc(Cl)ccc32)CO4)cc1 [Example 96, (1S,3′R,6′R)-6-chloro-8′-(4-methoxybenzyl)-3,4-dihydro-2H,7′H,15′H-spiro[naphthalene-1,22′-[20]oxa[13]thia[1,8,14]triazatetracyclo[14.7.2.0^3,6.0^19,24]pentacosa[16,18,24]trien]-7′,15′-dione 13′,13′-dioxide]	31.7 nM
C/C=C/C1CC(=O)[C@@H]2CC[C@H]2CN2C[C@@]3(CCCc4cc(Cl)ccc43)COc3ccc(cc32)C(=O)NS(=O)(=O)[C@H](C)[C@@H](C)C1 (stereo in doubt) [Example 350, (1S,3′R,6′R,9′R,11′S,12′R)-6-chloro-11′,12′-dimethyl-9′-((1E)-1-propen-1-yl)-3,4-dihydro-2H,7′H,15′H-spiro[naphthalene-1,22′-[20]oxa[13]thia[1,14]diazatetracyclo[14.7.2.0^3,6.0^19,24]pentacosa [16,18,24]triene]-7′,15′-dione 13′,13′-dioxide]	3.73 nM
C[C@@H]1CC/C=C/[C@H](OCC(=O)N(C)C)[C@@H]2CC[C@H]2CN2C[C@@]3(CCCc4cc(Cl)ccc43)COc3ccc(cc32)C(=O)NS1(=O)=O [Example 420, 2-(((1S,3′R,6′R,7′S,8′E,12′R)-6-chloro-12′-methyl-13′,13′-dioxido-15′-oxo-3,4-dihydro-2H-spiro[naphthalene-1,22′-[20]oxa[13]thia[1,14]diazatetracyclo[14.7.2.0^3,6.0^19,24]pentacosa [8,16,18,24]tetraen]-7′-yl)oxy)-N,N-dimethylacetamide]	0.349 nM

Now from value to compound:

IC50	Compound
2.14 nM	CC[C@@H]1CC/C=C/[C@H](OCC(=O)N2CCC(F)(F)CC2)[C@@H]2CC[C@H]2CN2C[C@@]3(CCCc4cc(Cl)ccc43)COc3ccc(cc32)C(=O)NS1(=O)=O [Example 998, (1S,3′R,6′R,7′S,8′E,12′R)-6-chloro-7′-(2-(4,4-difluoro-1-piperidinyl)-2-oxoethoxy)-12′-ethyl-3,4-dihydro-2H,15′H-spiro[naphthalene-1,22′-[20]oxa[13]thia[1,14]diazatetracyclo[14.7.2.0^3,6.0^19,24]pentacosa [8,16,18,24]tetraen]-15′-one 13′,13′-dioxide]
0.373 nM	CC[C@@H]1CC/C=C/[C@H](OCC(=O)N2CCS(=O)(=O)CC2)[C@@H]2CC[C@H]2CN2C[C@@]3(CCCc4cc(Cl)ccc43)COc3ccc(cc32)C(=O)NS1(=O)=O [Example 999, (1S,3′R,6′R,7′S,8′E,12′R)-6-chloro-7′-(2-(1,1-dioxido-4-thiomorpholinyl)-2-oxoethoxy)-12′-ethyl-3,4-dihydro-2H,15′H-spiro[naphthalene-1,22′-[20]oxa[13]thia[1,14]diazatetracyclo[14.7.2.0^3,6.0^19,24]pentacosa [8,16,18,24]tetraen]-15′-one 13′,13′-dioxide]
2.19 nM	CC[C@@H]1CCCC[C@@H](NC(=O)C(C)C)[C@@H]2CC[C@H]2CN2C[C@@]3(CCCc4cc(Cl)ccc43)COc3ccc(cc32)C(=O)NS1(=O)=O [Example 1083]
8.44 nM	CC[C@@H]1CC/C=C/[C@H](OCC(=O)OC(C)(C)C)[C@@H]2CC[C@H]2CN2C[C@@]3(CCCc4cc(Cl)ccc43)COc3ccc(cc32)C(=O)NS1(=O)=O [Example 971, tert-butyl (((1S,3′R,6′R,7′S,8′E,12′R)-6-chloro-12′-ethyl-13′,13′-dioxido-15′-oxo-3,4-dihydro-2H-spiro[naphthalene-1,22′-[20]oxa[13]thia[1,14]diazatetracyclo[14.7.2.0^3,6.0^19,24]pentacosa [8,16,18,24]tetraen]-7′-yl)oxy)acetate]
1.9 nM	CC[C@@H]1CC/C=C/[C@H](OCCC2OCCO2)[C@@H]2CC[C@H]2CN2C[C@@]3(CCCc4cc(Cl)ccc43)COc3ccc(cc32)C(=O)NS1(=O)=O [Example 968, (1S,3′R,6′R,7′S,8′E,12′R)-6-chloro-7′-(2-(1,3-dioxolan-2-yl)ethoxy)-12′-ethyl-3,4-dihydro-2H,15′H-spiro[naphthalene-1,22′-[20]oxa[13]thia[1,14]diazatetracyclo[14.7.2.0^3,6.0^19,24]pentacosa [8,16,18,24]tetraen]-15′-one 13′,13′-dioxide]

same assay, conditions: cell free Mcl-1:Bim TR-FRET, recombinant human Mcl-1 (171-327)

Compound	IC50
CC1(C)C/C=C/[C@H](O)[C@@H]2CC[C@H]2CN2C[C@@]3(CCCc4cc(Cl)ccc43)COc3ccc(cc32)C(=O)NS1(=O)=O [Example 769, (1S,3′R,6′R,7′S,8′E)-6-chloro-7′-hydroxy-11′,11′-dimethyl-3,4-dihydro-2H,14′H-spiro[naphthalene-1,21′-[19]oxa[12]thia[1,13]diazatetracyclo[13.7.2.0^3,6.0^18,23]tetracosa[8,15,17,23]tetraen]-14′-one 12′,12′-dioxide]	0.971 nM
CC(C)(O)[C@@H]1CC/C=C/[C@H](O)[C@@H]2CC[C@H]2CN2C[C@@]3(CCCc4cc(Cl)ccc43)COc3ccc(cc32)C(=O)NS1(=O)=O (single isomer, unassigned) [Example 696]	0.305 nM
C[C@@H]1[C@H](O)C/C=C/C[C@@H]2CC[C@H]2CN2C[C@@]3(CCCc4cc(Cl)ccc43)COc3ccc(cc32)C(=O)NS1(=O)=O (single isomer, unassigned) [Example 506]	15.5 nM
O=C1NS(=O)(=O)CC/C=C\CC[C@@H]2CC[C@H]2CN2C[C@@]3(CCCc4cc(Cl)ccc43)COc3ccc1cc32 [Example 499, (1S,3′R,6′R,9′Z)-6-chloro-3,4-dihydro-2H,15′H-spiro[naphthalene-1,22′-[20]oxa[13]thia[1,14]diazatetracyclo[14.7.2.0^3,6.0^19,24]pentacosa [9,16,18,24]tetraen]-15′-one 13′,13′-dioxide]	24 nM
(1S,3′R,6′S,14′S,15′R)-6-chloro-3,4-dihydro-2H,9′H,17′H-spiro[naphthalene-1,24′-[22]oxa[15]thia[1,10,16]triazapentacyclo[16.7.2.1^10,14.0^3,6.0^21,26]octacosa[18,20,26]triene]-9′,17′-dione 15′-oxide or (1S,3′R,6′S,14′S,15′S)-6-chloro-3,4-dihydro-2H,9′H,17′H-spiro[naphthalene-1,24′-[22]oxa[15]thia[1,10,16]triazapentacyclo[16.7.2.1^10,14.0^3,6.0^21,26]octacosa[18,20,26]triene]-9′,17′-dione 15′-oxide [Example 948]	10.3 nM
CC[C@@H]1CC/C=C/[C@H](OC2COC2)[C@@H]2CC[C@H]2CN2C[C@@]3(CCCc4cc(Cl)ccc43)COc3ccc(cc32)C(=O)NS1(=O)=O [Example 783, (1S,3′R,6′R,7′S,8′E,12′R)-6-chloro-12′-ethyl-7′-(3-oxetanyloxy)-3,4-dihydro-2H,15′H-spiro[naphthalene-1,22′-[20]oxa[13]thia[1,14]diazatetracyclo [14.7.2.0^3,6.0^19,24]pentacosa[8,16,18,24]tetraen]-15′-one 13′,13′-dioxide]	1.04 nM
CC[C@@H]1/C=C/C[C@H](O)[C@@H]2CC[C@H]2CN2C[C@@]3(CCCc4cc(Cl)ccc43)COc3ccc(cc32)C(=O)NS1(=O)=O (single isomer, unassigned) [Example 766]	6.5 nM
C[C@@H]1CCCCCS(=O)(=O)NC(=O)c2ccc3c(c2)N(C[C@@H]2CC[C@H]21)C[C@@]1(CCCc2cc(Cl)ccc21)CO3 (single isomer, unassigned) [Example 907, (1S,3′R,6′S, 7′R)-6-chloro-7′-methyl-3,4-dihydro-2H,15′H-spiro[naphthalene-1,22′-[20]oxa[13]thia[1,14]diazatetracyclo[14.7.2.0^3,6.0^19,24]pentacosa [16,18,24]trien]-15′-one 13′,13′-dioxide or (1S,3′R,6′S, 7′S)-6-chloro-7′-methyl-3,4-dihydro-2H,15′H-spiro[naphthalene-1,22′-[20]oxa[13]thia[1,14]diazatetracyclo[14.7.2.0^3,6.0^19,24]pentacosa [16,18,24]trien]-15′-one 13′,13′-dioxide]	18.9 nM
O=C1NS(=O)(=O)C/C=C/CCC[C@@H]2CC[C@H]2CN2C[C@@]3(CCCc4cc(Cl)ccc43)COc3ccc1cc32 (single isomer, unassigned) [Example 498]	9.03 nM

The remaining lines, values ahead:

IC50	Compound
6.1 nM	O=C1NS(=O)(=O)CC=CCC(O)CC2CCC2CN2CC3(CCCc4cc(Cl)ccc43)COc3ccc1cc32 (single isomer, unassigned) [Example 913]
21.1 nM	O=C1NS(=O)(=O)CCCC[C@@H]2CC[C@H]2CN2C[C@@]3(CCCc4cc(Cl)ccc43)COc3ccc1cc32 [Example 830, (1S,3′S,6′S)-6-chloro-3,4-dihydro-2H,13′H-spiro[naphthalene-1,20′-[18]oxa[11]thia[1,12]diazatetracyclo[14.7.2.0^3,6.0^19,24]tricosa[14, 16,22]trien]-13′-one 11′,11′-dioxide]
6.36 nM	C=C1/C=C/CC[C@@H](CC)S(=O)(=O)NC(=O)c2ccc3c(c2)N(C[C@@H]2CC[C@@H]12)C[C@@]1(CCCc2cc(Cl)ccc21)CO3 [Example 872, (1S,3′R,6′R,8′E,12′R)-6-chloro-12′-ethyl-7′-methylidene-3,4-dihydro-2H,15′H-spiro[naphthalene-1,22′-[20]oxa[13]thia[1,14]diazatetracyclo[14.7.2.0^3,6.0^19,24]pentacosa [8,16,18,24]tetraen]-15′-one 13′,13′-dioxide]
